Columns and labels:
human RBC = details: cited from earlier work
[1] = Stopped-flow water flux (Pf) in control liposomes, effect of mercurial reagents; assay type: biochemical; details: 1 mM mercurial
Method: (§1) Purified AQP1 was stored overnight at 0° C. or frozen for several days at -80° C. prior to reconstitution. Reconstitution into proteoliposomes was carried out in a final volume of 1 ml containing 60-90 μg of purified AQP 1 protein in chromatography buffer, 9 mg of bath-sonicated E. coli phospholipid, 1.25% (w/v) octyl glucoside, and 50 mM Tris-HCl (pH 7.5). The mixture was briefly blended on a vortex mixer and incubated for 20 minutes on ice. […] Protein and phospholipid were measured as described by Ambudkar & Maloney (J. Biol. Chem., 1986, 261:10079-10086).
Permeability measurements. Membrane permeability measurements (Pf) were measured by exposing AQP1 proteoliposomes or control liposomes to an osmotic gradient by rapid mixing with an equal volume of another solution containing buffer A plus sufficient sucrose to increase osmolality in the mixed solutions to a value 120% of that in the original solution. This was performed with a stopped-flow fluorometer (SF.17MV, Applied Photophysics, Leatherhead, U.K.) with a measured dead time of 0.7 ms. […] Extravesicular carboxyfluorescein fluorescence was completely quenched using anti-fluorescein antibody (Harris et al., 1990, Am. J. Physiol. 259:F366-F371). […]

CHIP28 = target: T1, CHIP28 (Homo sapiens, UniProt P29972); test: Stopped-flow water flux (Pf) in CHIP28 proteoliposomes, effect of mercurial reagents; assay type: biochemical; details: 1 mM
T1 construct: was comprised of AQP1 (the 28-kDa protein itself and the 35-60-kDa glycosylated protein); from tissue; host or cells: human erythrocytes (blood-bank units; small-scale purifications from freshly drawn whole blood)
T1 sequence (P29972 2-269 limits assumed): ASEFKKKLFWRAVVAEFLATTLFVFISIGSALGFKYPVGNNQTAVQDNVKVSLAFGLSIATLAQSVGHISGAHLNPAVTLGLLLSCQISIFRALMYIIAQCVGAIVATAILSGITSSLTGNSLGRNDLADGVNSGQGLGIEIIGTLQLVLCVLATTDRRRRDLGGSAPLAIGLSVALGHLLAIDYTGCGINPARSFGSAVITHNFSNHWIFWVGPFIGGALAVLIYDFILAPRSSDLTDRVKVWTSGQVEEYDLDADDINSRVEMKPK
Method: Purified AQP1 was stored overnight at 0° C. or frozen for several days at -80° C. prior to reconstitution. Reconstitution into proteoliposomes was carried out in a final volume of 1 ml containing 60-90 μg of purified AQP 1 protein in chromatography buffer, 9 mg of bath-sonicated E. coli phospholipid, 1.25% (w/v) octyl glucoside, and 50 mM Tris-HCl (pH 7.5). The mixture was briefly blended on a vortex mixer and incubated for 20 minutes on ice. Proteoliposomes (or liposomes prepared without protein) were formed at room temperature by rapidly injecting the mixture into 25 ml of buffer A [50 mM MOPS, pH 7.5, 150 mM N-methyl-D-glucamine (NMDG) chloride also containing 10-15 mM carboxyfluorescein, 1 mM dithiothreitol, and 0.5 mM PMSF]. For the measurement of proton permeability, proteoliposomes and liposomes were loaded with buffer B (5 mM MOPS, pH 7.5, 150 mM KCl, 0.5 mM carboxyfluorescein, 1 mM dithiothreitol, and 0.5 mM PMSF). The suspension was incubated for 20 minutes at room temperature. Proteoliposomes or liposomes were collected by centrifugation for 1 hour at 123000×g in a Beckman Type 42.1 rotor at 4° C. The pellet was resuspended in 8 ml of buffer A or B and then centrifuged for 1 hour at 152000×g in a Beckman Type 50 Ti rotor. Proteoliposomes or liposomes were resuspended in 300 μl of buffer A or B and stored at 4° C. for 16-24 hours. Typically 50% (54±6%, n=5) of the AQP1 protein and 70% of the phospholipid were recovered in proteoliposomes. The lipid to protein ratio was in the range of 120:1 to 219:1. These proteoliposomes have internal volumes of 1 μl/mg of phospholipid (Ambudkar and Maloney, 1986, J. Biol. Chem. 261:10079-10086). Protein and phospholipid were measured as described by Ambudkar & Maloney (J. Biol. Chem., 1986, 261:10079-10086).
Permeability measurements. Membrane permeability measurements (Pf) were measured by exposing AQP1 proteoliposomes or control liposomes to an osmotic gradient by rapid mixing with an equal volume of another solution containing buffer A plus sufficient sucrose to increase osmolality in the mixed solutions to a value 120% of that in the original solution. This was performed with a stopped-flow fluorometer (SF.17MV, Applied Photophysics, Leatherhead, U.K.) with a measured dead time of 0.7 ms. The excitation wavelength was set at 490±1.5 nm using a 150-W mercury-xenon arc lamp and monochromator (.function.3.4 grating monochromator, both from Applied Photophysics); the emission wavelength was >515 nm using a cut-on filter (Oriel Corp., Stratford, Conn.). Extravesicular carboxyfluorescein fluorescence was completely quenched using anti-fluorescein antibody (Harris et al., 1990, Am. J. Physiol. 259:F366-F371).
Within the range of osmolalities used in these experiments, the vesicles acted as perfect osmometers, and relative volume (absolute volume divided by initial volume) was linearly related to relative fluorescence (absolute fluorescence divided by initial fluorescence). The data obtained from 8 to 16 determinations was averaged and fit to single-exponential curves using 5 software provided by Applied Photophysics (Zeidel et al., 1992, Biochemistry 31:589-596). The fitting parameters were then used to determine Pf by first applying the linear conversion from relative fluorescence to relative volume and then iteratively solving the water permeability equation using MathCAD software (MathSoft, Cambridge, Mass.):
dV(t)/dt=(Pf)(SAV)(MVW)[(Cin /V(t))-Cout ] (1)
where V(t) is relative intravesicular volume as a function of time, Pf is osmotic water permeability in centimeters per second, SAV is the vesicle surface area to volume ratio, MVW is the molar volume of water (18 cm^3 /mol), and Cin and Cout are the initial concentrations of total solute inside and outside the vesicle, respectively (Zeidel et al., 1992, Biochemistry 31:589-596).
Effect of mercural reagents.

[2] = Proton permeability (PH+) of CHIP28 proteoliposomes; assay type: biochemical; details: 1 μM gramicidin A added to vesicles
Method: as §1, with “ice. Proteoliposomes (or liposomes prepared without protein) were formed at room temperature by rapidly injecting the mixture into 25 ml of buffer A [50 mM MOPS, pH 7.5, 150 mM N-methyl-D-glucamine (NMDG) chloride also containing 10-15 mM carboxyfluorescein, 1 mM dithiothreitol, and 0.5 mM PMSF].” for “ice.”
Exclusion of protons. […] Proton permeability was measured in CHIP28-containing liposomes containing 150 mM KCl and 5 mM MOPS, incorporating 1 μM valinomycin to prevent accumulation of protons from generating a positive intravesicular voltage. […] Over the pH range employed, fluorescence was linearly related to pH; extravesicular fluorescence was quenched with anti-fluorescein antibody. To ensure that increases in PH+ caused by CHIP28 could have been detected, 1 μM gramicidin A was added and increased PH+ by over 50-fold in each experiment.

Xenopus oocytes = test: Two electrode voltage clamp of AQP5-expressing oocytes; assay type: cell-based; details: electrophysiological studies, not shown
Method: Functional expression in Oocytes--A 1-kb BamHI fragment containing the 5' untranslated sequence and the entire open reading frame of the salivary cDNA was blunt-end-ligated into the BglII site of the Xenopus expression construct pXβG, which contains the HindIII-Pst insert of pSP64T in pBS II KS (Preston et al., 1992, Science, 256:385-387). Capped cRNA was synthesized in vitro after digestion with Xbal (Preston et al., 1993). Defolliculated stage V-VI Xenopus oocytes were injected with 50 nl of water or up to 5 ng of sample cRNAs and incubated for 3 days at 18° C. in 200 mosM modified Barth's buffer. The oocytes were transferred to 70 mosM modified Barth's buffer at 21° C.; oocyte swelling was monitored by videomicroscopy, and the coefficient of osmotic water permeability (Pf) was determined (Preston et al., 1992, 1993). Uptake of [^14 C]urea or [^14 C]glycerol was measured by incubating oocytes in 200 mosM Barth's buffer for 10-20 min at 21° C. followed by washing and SDS solubilization. No increase in ion conductance was found when control oocytes were compared to RNA-injected oocytes by two electrode voltage clamps (Preston et al, 1992).

O=C(CCc1ccc(O)cc1)c1c(O)cc(O)cc1O [Phloretin]
urea flux in human RBC (human RBC): inhibits urea flux
water flux in human RBC (human RBC): without altering water flux

O=S(=O)([O-])c1cc[c]([Hg][Cl])cc1 [pCMBS, p-chloromercuribenzene sulfonate]
effect on the Pf of control liposomes [1]: Neither pCMBS nor HgCl2 had any effect
inhibition of Pf at 5 and 10 minutes (CHIP28; 37° C.): partial
time to complete inhibition of Pf (CHIP28; 37° C.): 20 to 30 min
Pf in CHIP28 proteoliposomes after mercurial (CHIP28; 37° C. (FIG. 12: pCMBS 25 minutes, HgCl2 3 minutes)): 0.009±0.005 cm/s

gramicidin A
increase of PH+ [2]: over 50 fold

B1: AQP5: 265-residue rat salivary water channel protein, 5th mammalian Aquaporin (protein, UniProt P47864 1-265, looked up)
Aquaporin-5: MKKEVCSLAFFKAVFAEFLATLIFVFFGLGSALKWPSALPTILQISIAFGLAIGTLAQALGPVSGGHINPAITLALLIGNQISLLRAVFYVAAQLVGAIAGAGILYWLAPLNARGNLAVNALNNNTTPGKAMVVELILTFQLALCIFSSTDSRRTSPVGSPALSIGLSVTLGHLVGIYFTGCSMNPARSFGPAVVMNRFSPSHWVFWVGPIVGAMLAAILYFYLLFPSSLSLHDRVAVVKGTYEPEEDWEDHREERKKTIELTAH
membrane conductance (Xenopus oocytes): failed to reveal increased membrane conductance

Source: US5858702A, “Isolation, cloning and expression of transmembrane water channel Aquaporin 5 (AQP5)” (The Johns Hopkins University, priority 1995, dated 1999)
